Assays:
human V1a receptor = target: T1, human V1a receptor (Homo sapiens, UniProt P37288); assay: Cellular in vitro assay for determining vasopressin receptor activity, V1a receptor cell line (CHO, aequorin luminescence); assay type: cell-based; conditions: for IC50: CHO cell line transfected with human V1a receptor, [Arg]-vasopressin at EC50 concentration, read-out: IC50 hV1a; for ratio IC50 hV2/hV1a: selectivity ratio IC50 hV2 / IC50 hV1a
T1 construct: expressed in transfected cells; host or cells: CHO K1 (ATCC), also stably transfected with a modified aequorin
How it was run: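 Luminescence from reconstituted aequorin, reporting intracellular calcium release, was measured immediately after adding [Arg]-vasopressin at EC50 concentration to CHO K1 cells pretreated 10 minutes with graded compound concentrations. Inhibition gave IC50 values.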

human V2 receptor = target: T2, human V2 receptor (Homo sapiens, UniProt P30518); assay: Cellular in vitro assay for determining vasopressin receptor activity, V2 receptor cell line (CHO, CRE-luciferase); assay type: cell-based; conditions: CHO cell line transfected with human V2 receptor; [Arg8]-vasopressin at EC50 concentration, 3 hours; read-out: IC50 hV2
T2 construct: expressed in transfected cells; host or cells: CHO K1 (ATCC) expressing firefly luciferase under a CRE-responsive promoter
T2 sequence (P30518 whole entry): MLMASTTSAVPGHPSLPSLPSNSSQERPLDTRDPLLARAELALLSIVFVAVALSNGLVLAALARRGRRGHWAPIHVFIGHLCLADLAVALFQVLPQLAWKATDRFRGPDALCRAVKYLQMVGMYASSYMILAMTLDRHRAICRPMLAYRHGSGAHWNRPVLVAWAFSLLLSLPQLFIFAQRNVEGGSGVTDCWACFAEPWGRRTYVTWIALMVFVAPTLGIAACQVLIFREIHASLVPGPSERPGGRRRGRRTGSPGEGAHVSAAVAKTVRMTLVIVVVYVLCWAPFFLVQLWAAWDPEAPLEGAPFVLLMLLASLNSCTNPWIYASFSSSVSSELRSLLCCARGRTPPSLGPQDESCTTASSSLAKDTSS

T1 sequence (P37288 whole entry): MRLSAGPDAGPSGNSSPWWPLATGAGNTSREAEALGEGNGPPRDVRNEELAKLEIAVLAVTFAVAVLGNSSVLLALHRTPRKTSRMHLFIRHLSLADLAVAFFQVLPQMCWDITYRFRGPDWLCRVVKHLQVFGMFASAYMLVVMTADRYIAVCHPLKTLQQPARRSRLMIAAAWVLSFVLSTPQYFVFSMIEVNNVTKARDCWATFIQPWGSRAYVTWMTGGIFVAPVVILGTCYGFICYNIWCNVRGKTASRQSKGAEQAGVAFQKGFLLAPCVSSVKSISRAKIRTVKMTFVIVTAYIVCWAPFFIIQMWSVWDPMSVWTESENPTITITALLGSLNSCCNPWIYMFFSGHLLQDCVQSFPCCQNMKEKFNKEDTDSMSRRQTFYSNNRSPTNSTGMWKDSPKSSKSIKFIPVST

Compound	IC50 (human V1a receptor) [nM]	ratio IC50 hV2/hV1a (human V1a receptor)	IC50 (human V2 receptor) [nM]
O=C(Nc1cccnc1-n1cnc(Cn2nc(-c3ccc(Cl)cc3)n(C[C@H](O)C(F)(F)F)c2=O)n1)C1CC1(F)F (single isomer, unassigned) [Example 42]	23	27.0	620
O=C(Nc1cccnc1-n1cnc(Cn2nc(-c3ccc(Cl)cc3)n(C[C@H](O)C(F)(F)F)c2=O)n1)C1CCS(=O)(=O)C1 (single isomer, unassigned) [Example 52]	11.5	173.9	2000
O=C(Nc1cccnc1-n1cnc(Cn2nc(-c3ccc(Cl)cc3)n(C[C@H](O)C(F)(F)F)c2=O)n1)C1CC1F (single isomer, unassigned) [Example 55]	3.65	190.4	695
O=C(Nc1cccnc1-n1cnc(Cn2nc(-c3ccc(Cl)cc3)n(C[C@H](O)C(F)(F)F)c2=O)n1)C1CC1F (single isomer, unassigned) [Example 56]	4.4	92.0	405
O=C(Nc1ncccc1-n1cnc(Cn2nc(-c3ccc(Cl)cc3)n(C[C@H](O)C(F)(F)F)c2=O)n1)C1CC1F (single isomer, unassigned) [Example 78]	19.5	187.2	3650
O=C1CCC(NC(=O)c2ccccc2-n2cnc(Cn3nc(-c4ccc(Cl)cc4)n(CC(O)C(F)(F)F)c3=O)n2)CN1 (single isomer, unassigned) [Example 192, 2-[3-({3-(4-Chlorophenyl)-5-oxo-4-[3,3,3-trifluoro-2-hydroxypropyl]-4,5-dihydro-1H-1,2,4-triazol-1-yl}methyl)-1H-1,2,4-triazol-1-yl]-N-[6-oxopiperidin-3-yl]benzamide]	74.5	98.7	7350
O=C1CCC(NC(=O)c2ccccc2-n2cnc(Cn3nc(-c4ccc(Cl)cc4)n(CC(O)C(F)(F)F)c3=O)n2)CN1 (single isomer, unassigned) [Example 193, 2-[3-({3-(4-Chlorophenyl)-5-oxo-4-[3,3,3-trifluoro-2-hydroxypropyl]-4,5-dihydro-1H-1,2,4-triazol-1-yl}methyl)-1H-1,2,4-triazol-1-yl]-N-[6-oxopiperidin-3-yl]benzamide]	80	38.8	3100

Other lines, results leading:

IC50 (human V1a receptor) [nM]	ratio IC50 hV2/hV1a (human V1a receptor)	IC50 (human V2 receptor) [nM]	Compound
5.85	36.5	213	O=C(Nc1cccnc1-n1cnc(Cn2nc(-c3ccc(Cl)cc3)n(C[C@H](O)C(F)(F)F)c2=O)n1)C1CC1(F)F (single isomer, unassigned) [Example 43]
5	153.0	765	O=C(Nc1cccnc1-n1cnc(Cn2nc(-c3ccc(Cl)cc3)n(C[C@H](O)C(F)(F)F)c2=O)n1)C1CCS(=O)(=O)C1 (single isomer, unassigned) [Example 51]
4.25	208.2	885	O=C(Nc1cccnc1-n1cnc(Cn2nc(-c3ccc(Cl)cc3)n(C[C@H](O)C(F)(F)F)c2=O)n1)C1CC1F (single isomer, unassigned) [Example 60]
4.35	111.5	485	O=C(Nc1cccnc1-n1cnc(Cn2nc(-c3ccc(Cl)cc3)n(C[C@H](O)C(F)(F)F)c2=O)n1)C1CC1F (single isomer, unassigned) [Example 61]
12	195.8	2350	O=C(Nc1ncccc1-n1cnc(Cn2nc(-c3ccc(Cl)cc3)n(C[C@H](O)C(F)(F)F)c2=O)n1)C1CC1F (single isomer, unassigned) [Example 77]
4.5	311.1	1400	O=C(Nc1ncccc1-n1cnc(Cn2nc(-c3ccc(Cl)cc3)n(C[C@H](O)C(F)(F)F)c2=O)n1)C1CC1F (single isomer, unassigned) [Example 86]
